Assay results reported in patent publication US10098849B2, “Anti-radical agents” (BASF SE, priority 2004, dated 2018).
Where two headings read alike, the source gives them in different places.

Tests used:
[1] = tested on: Primary human dermal fibroblasts (HDF-N2)
Experimental: Cell cultures: Primary human dermal fibroblasts (HDF-N2) are maintained in Dulbecco's culture media (DMEM; 1 g/l glucose), supplemented with 10% of fetal calf serum (FCS), 100 μg/ml of streptomycin sulphate, 100 μml of penicillin and 2 mM of L-glutamine, all of them from Biowhitaker, USA. Confluent cells are detached by incubation for 3 minutes in 0.055 trypsin/0.53 mM EDTA at 37° C. and plated at the established cell density (normally, 15×10^4 cells/cm^2).
Culture media of negative controls are containing 10 mMol NaCl or 0.05% DMSO or 0.05% ethanol, respectively. Positive control is a culture medium containing 0.02% of Sodium Lauryl Sulfate (SDS).
For comparative purposes, a further culture medium is used containing the compound of the formula

[2] = tested on: squalene peroxidation (squalenehydroperoxide) in skin lipids; experiment: Efficacy against photooxidative stress in the skin induced by UVA irradiation (squalenehydroperoxide, HPLC); type: in vivo, human
Experimental: Anti-oxidant activity in vivo is measured via the capacity of a test compound to reduce radical induced lipid-peroxidation. • Persons tested: 10 individuals (4 female, 6 male); age range: 18 to 32 years • Body region tested: inner forearm • Application phase: once a day • Test period 7 days • Evaluation method: Determination of squalene • Determination of squalenehydroperoxide • Time of Evaluation: after UVA radiation • Evaluation: Descriptive statistics: average, median, minimum, maximum, variance, standard error, standard deviation; Multiple range test. Test Method
On the inner forearm of each subject symmetrically opposed areas are defined. The different formulations are applied once a day at a dose of about 2 mg of test solution/cm^2 for one week (application with a syringe for fine dosage: Omnifix®-F 1 ml; manufacturer: Braun Melsungen AG, Germany).
Two areas remain untreated.
The unique application of a solution of tocopherol in ethanol (0.2%) before irradiation serves as control.
Use of other cosmetic products is restricted on the test areas throughout the whole study. The areas (exception: one of the two untreated areas was not irradiated and can be attributed to environmental UVA radiation during the test) of the […] were then irradiated with UVA light (10 joule/cm^2). The lipids present on the test areas are harvested via a solvent extraction (4 ml ethanol for 2 minutes). The samples are first filtered through hydrophobic polypropylene filters to decant squames and other insoluble material, then dried under nitrogen at room temperature and taken up in 1 ml ethanol. Squalene (SQ) and squalenehydroperoxide (SQOOH) are then analysed by High Performance Liquid Chromatography (HPLC).
The fluorometer is used as a photon detector with the excitation source turned off.
This assay measures the hydroperoxy groups themselves and not indirect indices of lipid peroxidation such as conjugated dienes or breakdown products of lipid hydroperoxides. Chemiluminescence also detects ubiquinols. To confirm that any chemiluminescence observed in this assay was due to a hydroperoxide, not a hydroquinone, some samples were reduced with triphenyl phosphine and rerun.
Measuring data are centrally computerised after validity check and quality assurance. Evaluation is done using the software Statgraphics for Windows, Version 5.0—Manugistics, USA. Data are analysed by multiple range test (LSD: Least Significant Differences). The 0.05 level is selected as the point of minimal acceptance statistical significance.

[3] = 1% b.w. solution in ethanol, about 2 mg/cm^2 once a day for 7 days, inner forearm, UVA 10 joule/cm^2, 10 individuals
[4] = 5% stock solution in DMSO or ethanol diluted 1:500 in culture medium with 10% FCS, 48 h HDF cultures, more absorption = more viable cells

| Compound | Absorbance (OD450) after 24 h treatment ([1]; human, 24 h, 0.01 %) | average inhibition in % of peroxidation (SQOOH relative to untreated area) [2, 3] [%] | also measured |
| --- | --- | --- | --- |
| CC(C)(C)c1cc(CCC(=O)Nc2ccc(S(=O)(=O)[O-])cc2)cc(C(C)(C)C)c1O.[Na+] [AO6] | 1.9 | 28 | – |
| CC1(C)CC(O)CC(C)(C)N1O [AO8] | – | 21 | Absorbance (OD450) after 24 h treatment [1, 4]: 1.65 |
| CC(C)Cc1ccc(Oc2ccccc2)cc1O [comparison, reference compound] | 0.25 | – | – |
| CCCCCCCCCCCCOS(=O)(=O)[O-].[Na+] [SDS, Sodium Lauryl Sulfate, reference compound] | – | – | Absorbance (OD450) after 24 h treatment ([1]; positive control, culture medium containing 0.02% Sodium Lauryl Sulfate, 48 h HDF cultures): 0.25 |
| pentaerythritol-tetrakis(3-[3′,5′-di-tert.butyl-4′-hydroxyphenyl]-propionate) [AO7] | – | – | Absorbance (OD450) after 24 h treatment [1, 4]: 2.0; average inhibition in % of peroxidation (SQOOH relative to untreated area) ([2]; 0.1% b.w. solution in ethanol, about 2 mg/cm^2 once a day for 7 days, inner forearm, UVA 10 joule/cm^2, 10 individuals): 21.5% |
| Cc1c(C)c2c(c(C)c1O)CC[C@@](C)(CCC[C@H](C)CCC[C@H](C)CCCC(C)C)O2 [Control, tocopherol, reference compound] | – | – | average inhibition in % of peroxidation (SQOOH relative to untreated area) ([2]; unique application of tocopherol in ethanol (0.2%) before irradiation, UVA 10 joule/cm^2): 22.5% |
| CC(c1cc(C(C)(C)C)cc(C(C)(C)C)c1O)c1cc(C(C)(C)C)cc(C(C)(C)C)c1O [AO4] | 1.0 | 28 | – |
